# In patent EP0416740A2, “Novel compounds with renin-inhibiting activity” (Beecham Group p.l.c., priority 1989, dated 1991):
# Where a name gives a salt, the structure may show the parent alone. Read-outs that look alike come from different tables or passages of the source.
# Target: T1, human renin (Homo sapiens, UniProt P00797)
# T1 construct: from tissue; host or cells: human plasma from blood of healthy volunteers
# T1 sequence (P00797 67-406): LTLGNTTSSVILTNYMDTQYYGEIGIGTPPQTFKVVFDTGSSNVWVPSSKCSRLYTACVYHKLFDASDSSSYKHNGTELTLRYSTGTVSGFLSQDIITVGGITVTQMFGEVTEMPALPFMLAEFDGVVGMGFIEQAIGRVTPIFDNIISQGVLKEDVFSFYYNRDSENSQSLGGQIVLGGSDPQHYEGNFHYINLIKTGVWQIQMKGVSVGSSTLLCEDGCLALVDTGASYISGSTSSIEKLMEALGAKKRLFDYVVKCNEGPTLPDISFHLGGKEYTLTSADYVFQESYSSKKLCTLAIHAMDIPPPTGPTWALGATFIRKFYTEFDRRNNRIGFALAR
# Assay: biochemical
# Method: In vitro human renin inhibition
# Renin inhibitory activity was estimated as the percentage change in renin activity in human plasma in the presence and absence of compound. The source of plasma was blood taken from healthy volunteers. Renin activity was defined by the difference in angiotensin I levels between two halves of a sample, one incubated at 37^o and the other at 4^o for 2 h. Angiotensin I levels were measured using a ¹²⁵I- angiotensin I radioimmunoassay kit (NEN/Dupont, Stevenage). Results were calculated as the mean of at least two, duplicate determinations and IC₅₀ values were calculated by linear regression analysis of at least three concentrations of compound.
# [1] = renin activity in human plasma, angiotensin I difference between halves incubated at 37° and 4° for 2 h, linear regression of at least three concentrations, read-out: IC₅₀
Structure (SMILES),IC50 [nM],IC50 [1] [nM]
"CC(C)CNC(=O)C[C@H](O)[C@H](CC1CCCCC1)NC(=O)[C@H](CC(C)C)NC(=O)[C@H](Cc1ccccc1)NC(=O)CC1COc2ccc[n+]([O-])c21 (stereo partly drawn) [Example E2, 2,3-Dihydro-4-oxofuro[3,2-]pyridine-3-acetyl-Phe-Leu-ACHPA isobutylamide]",21,–
"CC(C)C[C@H](NC(=O)[C@H](Cc1ccccc1)NC(=O)CCN1C(=O)COc2cccnc21)C(=O)N[C@@H](CC1CCCCC1)[C@@H](O)CC(=O)NCCCn1ccnc1 [Example E3, 2,3-Dihydro-3-oxo-4H-pyrido[3,2-b]-1,4-oxazine-4-propanoyl-Phe-Leu-ACHPA 3-(1-imidazolyl)propylamide .0.5(CHCl₃)]",–,26
"CC(C)C[C@H](NC(=O)[C@H](Cc1ccccc1)NC(=O)CCN1C(=O)CSc2ccncc21)C(=O)N[C@@H](CC1CCCCC1)[C@@H](O)CC(=O)NCCCn1ccnc1 [Example E4, 2,3-Dihydro-3-oxo-4H-pyrido[4,3-b]-1,4-thiazine-4-propanoyl-Phe-Leu-ACHPA 3-(1-imidazolyl)propylamide]",–,4
"CC(C)C[C@H](NC(=O)[C@H](Cc1ccccc1)NC(=O)CCN1C(=O)CSc2ncccc21)C(=O)N[C@@H](CC1CCCCC1)[C@@H](O)CC(=O)NCCCn1ccnc1 [Example E10, 2,3-Dihydro-3-oxo-4H-pyrido[2,3-b]-1,4-thiazine-4-propanoyl-Phe-Leu-ACHPA 3-(1-imidazolyl)propylamide .HCl]",–,6
"CC(C)C[C@H](NC(=O)[C@H](Cc1ccccc1)NC(=O)CCN1C(=O)CS(=O)(=O)c2ncccc21)C(=O)N[C@@H](CC1CCCCC1)[C@@H](O)CC(=O)NCCCn1ccnc1 [Example E11, 2,3-Dihydro-1,1,3-trioxo-4H-pyrido[2,3-b]-1,4-thiazine-4-propanoyl-Phe-Leu-ACHPA 3-(1-imidazolyl)propylamide .HCl.1.5H₂O]",–,12
"CC(C)C[C@H](NC(=O)[C@H](Cc1ccccc1)NC(=O)CCCN1Cc2ccncc2C1=O)C(=O)N[C@@H](CC1CCCCC1)[C@@H](O)CC(=O)NCCCn1ccnc1 [Example E14, 6,7-Dihydro-5H-7-oxo-pyrrolo[3,4-c]pyridine-6-butanoyl-Phe-Leu-ACHPA 3-(1-imidazolyl)propylamide.2HCl]",–,14
